# According to publication PMC4418665, “Cyclization of the Urokinase Receptor-Derived Ser-Arg-Ser-Arg-Tyr Peptide Generates a Potent Inhibitor of Trans-Endothelial Migration of Monocytes” (PLoS ONE, 2015):
# Peptide text beside a SMILES is read from it.
# Target: T1, FPR1 (Homo sapiens, UniProt P21462)
# T1 sequence (P21462 1-350): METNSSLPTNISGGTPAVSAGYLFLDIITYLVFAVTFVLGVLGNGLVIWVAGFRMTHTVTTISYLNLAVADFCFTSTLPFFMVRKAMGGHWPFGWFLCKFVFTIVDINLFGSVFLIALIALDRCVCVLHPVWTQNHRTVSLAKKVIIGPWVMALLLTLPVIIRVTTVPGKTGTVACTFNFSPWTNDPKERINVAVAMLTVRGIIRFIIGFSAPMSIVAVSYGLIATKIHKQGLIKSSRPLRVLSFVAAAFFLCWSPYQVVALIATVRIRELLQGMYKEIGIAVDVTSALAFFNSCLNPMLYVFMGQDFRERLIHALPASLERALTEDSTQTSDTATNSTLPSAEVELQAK
# Test: Ligand binding assay, competition with FITC-fMLF at 4°C, THP-1 cells
# Set-up: host or cells: THP-1 human monocytic leukemia cells
# Conditions: excess (100 nM) unlabeled peptide 60 min at 4°C, then 10 nM FITC-fMLF 60 min at 4°C; triplicates
# Method: Once documented that both SRSRY and [SRSRY] peptides compete with fMLF for binding to FPR1, we investigated the effect of [SRSRY] on the motility of monocytes. Preliminarily, we assessed whether [SRSRY] is a ligand of FPR1 on monocyte cell surface. […] (Fig 3A). When binding experiments were performed at 37°C, FPR1 appeared mainly localized within the cytoplasm, adjacent but outside the nucleus of THP-1 cells.
# Fig 3 The peptide [SRSRY] binds to FPR1 on THP-1 cell surface. A. THP-1 cells (1.5 x10^6 cells/sample) were pre-incubated with diluents (None), 100 nM fMLF, 100 nM SRSRY or 100 nM [SRSRY] peptides for 60 minutes at 4°C, then exposed to 10 nM N-formyl-Nle-Leu-Phe-Nle-Tyr-Lys-fluorescein (FITC-fMLF) for additional 60 minutes at 4°C. Fluorimetric measurement of cell-associated fluorescence was assed using 485 nm excitation and 535 nm emission filters. Data are expressed as a percentage of the fluorescence associated to THP-1 cells exposed to FITC-fMLF alone (None = 100%) and represent a mean ± SD from triplicates. *Statistical significance (t-test) against None with p<0.001. B. THP-1 cells incubated with diluents (None), 100 nM fMLF, 100 nM SRSRY or 100 nM [SRSRY] peptides for 30 minutes at 37°C and exposed to 10 nM FITC-fMLF for additional 30 minutes at 37°C. Scale bar: 5 μm. Original magnifications: 630x. […]
row,Compound,binding of FITC-fMLF to THP-1 cells
1,"N=C(N)NCCC[C@@H]1NC(=O)[C@H](CO)NC(=O)[C@H](Cc2ccc(O)cc2)NC(=O)[C@H](CCCNC(=N)N)NC(=O)[C@H](CO)NC1=O [[SRSRY], [Ser-Arg-Ser-Arg-Tyr]] (cyclo(RSRYS))",dramatically reduced
2,"N=C(N)NCCC[C@H](NC(=O)[C@H](CO)NC(=O)[C@H](CCCNC(=N)N)NC(=O)[C@@H](N)CO)C(=O)N[C@@H](Cc1ccc(O)cc1)C(N)=O [SRSRY, H-Ser-Arg-Ser-Arg-Tyr-NH2] (H-SRSRY-NH2)",dramatically reduced
